Measured values: ChEMBL document CHEMBL1201862, “PubChem BioAssay data set” (2004)
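Each compound was tested at five concentrations against cells in 96-well plates for 48 hours. GI50 marks 50% less growth.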 Activity calls are given as the source filed them. Cut-off read from the data, not from the text of the source: active = GI50 up to about 1.1 µM and inactive = higher.

What was measured:
Assay in all cases: NCI anticancer screen, dose series, 48 h
SW-620 = tested on: SW-620
CCRF-CEM = tested on: CCRF-CEM
OVCAR-4 = tested on: OVCAR-4
ACHN = tested on: ACHN
RXF 393 = tested on: RXF 393
A549 = tested on: A549
UO-31 = tested on: UO-31
786-0 = tested on: 786-0
NCI-H23 = tested on: NCI-H23
KM-20L2 = tested on: KM-20L2
HCC 2998 = tested on: HCC 2998
UACC-62 = tested on: UACC-62
MOLT-4 = tested on: MOLT-4
CAKI-1 = tested on: CAKI-1
OVCAR-3 = tested on: OVCAR-3
SR = tested on: SR
MDA-MB-435 = tested on: MDA-MB-435
BT-549 = tested on: BT-549
MCF7 = tested on: MCF7
T47D = tested on: T47D

| Structure (SMILES) | GI50 (SW-620) | GI50 (CCRF-CEM) | GI50 (OVCAR-4) | GI50 (ACHN) | GI50 (RXF 393) | GI50 (A549) | GI50 (UO-31) | GI50 (786-0) | GI50 (NCI-H23) | GI50 (KM-20L2) | GI50 (HCC 2998) | GI50 (UACC-62) | GI50 (MOLT-4) | GI50 (CAKI-1) | GI50 (OVCAR-3) | GI50 (SR) | GI50 (MDA-MB-435) | GI50 (BT-549) | GI50 (MCF7) | GI50 (T47D) |
| --- | --- | --- | --- | --- | --- | --- | --- | --- | --- | --- | --- | --- | --- | --- | --- | --- | --- | --- | --- | --- |
| O=C(/C=C/c1ccccc1)CC1OC(=O)c2ccccc21 (stereo not drawn) | 84.3 µM (inactive) | 32.8 µM (inactive) | > 100 µM (inactive) | > 100 µM (inactive) | > 100 µM (inactive) | > 100 µM (inactive) | > 100 µM (inactive) | > 100 µM (inactive) | 47.1 µM (inactive) | > 100 µM (inactive) | > 100 µM (inactive) | 26.1 µM (inactive) | 31 µM (inactive) | – | – | – | – | – | – | – |
| CC1=C(C(=O)O)N2C(=O)[C@@H](NC(=O)C(c3ccccc3)N3CSC(=S)N(C(C)C)C3)C2SC1 (stereo partly drawn) | – | > 100 µM (inactive) | > 100 µM (inactive) | > 100 µM (inactive) | – | – | > 100 µM (inactive) | > 100 µM (inactive) | > 100 µM (inactive) | > 100 µM (inactive) | – | > 100 µM (inactive) | > 100 µM (inactive) | > 100 µM (inactive) | > 100 µM (inactive) | – | – | – | – | – |
| COc1cc(-c2c(C)c(C)nc(OC)c2C#N)cc(OC)c1OC | > 100 µM (inactive) | > 100 µM (inactive) | 61 µM (inactive) | > 100 µM (inactive) | 44.2 µM (inactive) | > 100 µM (inactive) | 31.5 µM (inactive) | > 100 µM (inactive) | > 100 µM (inactive) | > 100 µM (inactive) | > 100 µM (inactive) | 40.6 µM (inactive) | 39.9 µM (inactive) | – | > 100 µM (inactive) | – | – | – | – | – |
| O=c1oc2c(ccc3ccccc32)cc1C1=CSC2=NCCN12 | 29.7 µM (inactive) | 30.5 µM (inactive) | 44.5 µM (inactive) | 35.2 µM (inactive) | 33.5 µM (inactive) | 27.1 µM (inactive) | 23.3 µM (inactive) | 38.7 µM (inactive) | 53.8 µM (inactive) | – | 3.82 µM (inactive) | > 100 µM (inactive) | 34.2 µM (inactive) | 75.5 µM (inactive) | 31.6 µM (inactive) | 34.4 µM (inactive) | 53.3 µM (inactive) | 26.2 µM (inactive) | 21.8 µM (inactive) | 30.5 µM (inactive) |
| O=C(OCC1CCCN2CCCCC12)c1ccncc1 (stereo not drawn) | > 100 µM (inactive) | > 100 µM (inactive) | > 100 µM (inactive) | > 100 µM (inactive) | > 100 µM (inactive) | > 100 µM (inactive) | > 100 µM (inactive) | > 100 µM (inactive) | > 100 µM (inactive) | – | > 100 µM (inactive) | > 100 µM (inactive) | > 100 µM (inactive) | > 100 µM (inactive) | > 100 µM (inactive) | > 100 µM (inactive) | > 100 µM (inactive) | > 100 µM (inactive) | > 100 µM (inactive) | > 100 µM (inactive) |
| CS(=O)(=O)C(=Cc1ccccc1Cl)S(C)(=O)=O | > 66.4 µM (inactive) | 25.5 µM (inactive) | > 100 µM (inactive) | > 100 µM (inactive) | > 100 µM (inactive) | > 100 µM (inactive) | > 100 µM (inactive) | > 100 µM (inactive) | > 100 µM (inactive) | – | > 100 µM (inactive) | 24.4 µM (inactive) | > 100 µM (inactive) | > 100 µM (inactive) | > 100 µM (inactive) | > 100 µM (inactive) | > 27.8 µM (inactive) | > 100 µM (inactive) | > 40.3 µM (inactive) | > 100 µM (inactive) |
| COC(=O)c1ccc2c(c1)CC1(C2)Cc2cc3c(c(C(=O)OC)c2C1)CCCC3 (stereo not drawn) | > 100 µM (inactive) | 48.6 µM (inactive) | 50.5 µM (inactive) | 47.8 µM (inactive) | > 100 µM (inactive) | 83.9 µM (inactive) | > 100 µM (inactive) | 64.1 µM (inactive) | 65.5 µM (inactive) | – | 86.5 µM (inactive) | 37.1 µM (inactive) | 42.7 µM (inactive) | 28.8 µM (inactive) | 18.3 µM (inactive) | 69.5 µM (inactive) | 84.1 µM (inactive) | > 10 µM (inactive) | 68.5 µM (inactive) | 47.3 µM (inactive) |
| CN(C)P(=O)(Oc1ccc(CC(NC(=O)OCc2ccccc2)C(=O)OCc2ccccc2)cc1)N(C)C (stereo not drawn) | 18.2 µM (inactive) | 2.43 µM (inactive) | 20.7 µM (inactive) | 18.5 µM (inactive) | 17.5 µM (inactive) | 19.2 µM (inactive) | 18.5 µM (inactive) | 4.94 µM (inactive) | 14.1 µM (inactive) | – | 18.3 µM (inactive) | 15.2 µM (inactive) | 3.35 µM (inactive) | 17.6 µM (inactive) | 3.43 µM (inactive) | 4.56 µM (inactive) | 12.2 µM (inactive) | 17.1 µM (inactive) | 12.4 µM (inactive) | 21 µM (inactive) |
| Cc1cc(N(CCC#N)CCC#N)ccc1/C=C1N=C(/C=C\c2ccccc2)N(NC(=O)CC(=O)Nc2ccccc2Cl)C\1=O | > 100 µM (inactive) | > 100 µM (inactive) | > 100 µM (inactive) | > 100 µM (inactive) | – | > 100 µM (inactive) | > 100 µM (inactive) | > 100 µM (inactive) | > 100 µM (inactive) | > 100 µM (inactive) | – | > 100 µM (inactive) | > 100 µM (inactive) | > 100 µM (inactive) | > 100 µM (inactive) | – | – | – | – | – |
| CNc1nc2c(C)ccc3nc(N(C)C)[nH]c3c-2n1 | 47.3 µM (inactive) | 81.8 µM (inactive) | 19.5 µM (inactive) | 15.2 µM (inactive) | 25.7 µM (inactive) | 39.9 µM (inactive) | 34.6 µM (inactive) | 51.3 µM (inactive) | 32.9 µM (inactive) | – | 28.2 µM (inactive) | 68.7 µM (inactive) | 32.7 µM (inactive) | 65.5 µM (inactive) | 82.2 µM (inactive) | 43.8 µM (inactive) | 50.8 µM (inactive) | 84.7 µM (inactive) | 31.5 µM (inactive) | 46.6 µM (inactive) |
| COC(=O)CC1c2ccccc2N2C(=O)Cc3c([nH]c4ccccc34)C12 (stereo not drawn) | > 100 µM (inactive) | > 100 µM (inactive) | 31.4 µM (inactive) | > 100 µM (inactive) | > 100 µM (inactive) | > 100 µM (inactive) | > 100 µM (inactive) | 58.6 µM (inactive) | > 100 µM (inactive) | – | > 100 µM (inactive) | > 100 µM (inactive) | > 100 µM (inactive) | > 100 µM (inactive) | > 100 µM (inactive) | > 100 µM (inactive) | > 100 µM (inactive) | > 100 µM (inactive) | 34.8 µM (inactive) | > 100 µM (inactive) |
| O=C1C(=O)N(c2ccc(Cl)cc2)C(=O)C(=O)C1c1nc2ccccc2s1 | > 100 µM (inactive) | – | > 100 µM (inactive) | 89.3 µM (inactive) | > 100 µM (inactive) | – | > 100 µM (inactive) | > 100 µM (inactive) | > 100 µM (inactive) | > 100 µM (inactive) | > 100 µM (inactive) | > 100 µM (inactive) | 21.9 µM (inactive) | > 100 µM (inactive) | > 100 µM (inactive) | – | – | – | – | – |
| O=C1c2c(F)c(F)c(F)c(F)c2SC2=NCCN12 | 2.38 µM (inactive) | 2.39 µM (inactive) | 3.12 µM (inactive) | 8.41 µM (inactive) | 2.47 µM (inactive) | 14.7 µM (inactive) | 10.1 µM (inactive) | 7.26 µM (inactive) | 5.42 µM (inactive) | – | 14.5 µM (inactive) | 5.04 µM (inactive) | 2.24 µM (inactive) | 3.1 µM (inactive) | 4.91 µM (inactive) | 1.15 µM (inactive) | 2.85 µM (inactive) | 14.8 µM (inactive) | 8.15 µM (inactive) | 12.5 µM (inactive) |
| Nc1nc(N)c(N=O)c(OCC2CCCCC2)n1 | 24 µM (inactive) | 5.36 µM (inactive) | 10 µM (inactive) | 1.06 µM (active) | 7.1 µM (inactive) | 17.8 µM (inactive) | 5.16 µM (inactive) | 11.6 µM (inactive) | 12.2 µM (inactive) | – | 14.9 µM (inactive) | 6.98 µM (inactive) | 6.64 µM (inactive) | 7.55 µM (inactive) | 8.47 µM (inactive) | 4.76 µM (inactive) | 14.3 µM (inactive) | 7.82 µM (inactive) | 4.3 µM (inactive) | 5.57 µM (inactive) |
| C=CCc1c(Cl)nc(Cl)nc1Cl | 0.0495 µM (active) | < 0.01 µM (active) | 0.243 µM (active) | 0.346 µM (active) | 0.217 µM (active) | 2.04 µM (inactive) | 0.0748 µM (active) | 0.0918 µM (active) | 0.422 µM (active) | – | 0.832 µM (active) | 0.333 µM (active) | 0.0102 µM (active) | 0.0176 µM (active) | 0.161 µM (active) | < 0.01 µM (active) | 0.321 µM (active) | 0.0474 µM (active) | 0.185 µM (active) | 0.313 µM (active) |
| CC(C)=NOC(=O)CNC(=O)C(Cc1ccccc1)NC(=O)C(C)NC(=O)OC(C)(C)C (stereo not drawn) | > 100 µM (inactive) | > 100 µM (inactive) | > 100 µM (inactive) | > 100 µM (inactive) | > 100 µM (inactive) | > 100 µM (inactive) | > 100 µM (inactive) | > 100 µM (inactive) | > 100 µM (inactive) | – | > 100 µM (inactive) | > 100 µM (inactive) | > 100 µM (inactive) | > 100 µM (inactive) | > 100 µM (inactive) | > 100 µM (inactive) | > 100 µM (inactive) | > 100 µM (inactive) | > 100 µM (inactive) | > 100 µM (inactive) |
